Measurements taken from BindingDB's records for doi:10.1016/0028-3908(88)90149-9 (Organon International, 1988).

Molecular target: Norepinephrine transporter (Rattus norvegicus, UniProt Q9JIA2)

- Ki: 15.9 nM
SMILES: CN1Cc2c(N)cccc2[C@H](c2ccccc2)C1 [(+/-)-2-Methyl-4-phenyl-1,2,3,4-tetrahydro-isoquinolin-8-ylamine]
